Assays:
Trypanosoma cruzi [1] = assay: Antitrypanosomal activity against Trypanosoma cruzi; format: functional, organism-based
[2] = Cytotoxicity against human HepG cells; format: functional, cell-based
KB = assay: Cytotoxicity against human KB cells; format: functional, cell-based
HeLa = assay: Cytotoxicity against human HeLa cells; format: functional, cell-based
Trypanosoma cruzi [3] = assay: Antitrypanosomal activity against Trypanosoma cruzi after 24 hrs; format: functional, organism-based

Compound: CC1(C)CCc2c(c3ccccc3c3nc(-c4ccccc4)[nH]c23)O1
- IC50 (Trypanosoma cruzi [1]): 39.4 µM

Compound: O=C1C(=O)c2ccccc2C2=C1CCCO2
- IC50 [2]: 920 nM
- IC50 (KB): 920 nM
- IC50 (HeLa): 920 nM

Compound: Cc1ccc(-c2nc3c([nH]2)c2c(c4ccccc43)OC(C)(C)CC2)cc1
- IC50 (Trypanosoma cruzi [1]): 15.5 µM

Compound: O=C1C(=O)c2ccccc2C2=C1CCO2
- IC50 [2]: 920 nM
- IC50 (KB): 920 nM
- IC50 (HeLa): 920 nM

Compound: CC1(C)CCc2c(c3ccccc3c3ncoc23)O1
- IC50 (Trypanosoma cruzi [3]): 325 µM

Compound: CC1(C)CCc2c(c3ccccc3c3nc(-c4c[nH]c5ccccc45)[nH]c23)O1
- IC50 (Trypanosoma cruzi [1]): 15.4 µM

Compound: CC1(C)CCc2c(c3ccccc3c3nc(-c4ccccc4)oc23)O1
- IC50 (Trypanosoma cruzi [3]): 284 µM

Source: ChEMBL document CHEMBL2434923, “Synthesis of quinoidal molecules: strategies towards bioactive compounds with an emphasis on lapachones” (Eur J Med Chem, 2013)
